Source: patent US6982348B2, “Aminoethanol derivatives” (Takeda Pharmaceutical Company Limited, priority 2001, dated 2006)

SMILES	melting point [°C]
CC(C)(C)Cc1ccc(C[C@@H](NC(=O)c2cccc3c2C=CCCC3)[C@@H](O)c2cccc(Cl)c2)cc1 (racemic) [Example 344, N-[(1RS,2SR)-2-(3-chlorophenyl)-2-hydroxy-1-(4-neopentylbenzyl)ethyl]-6,7-dihydro-5H-benzo[a]cycloheptene-1-carboxamide]	147 to 149
CC(C)(C)OC(=O)N[C@H](Cc1cccc(S(=O)(=O)C(F)(F)F)c1)[C@@H](O)c1ccc(F)cc1 (racemic) [Example 279, tert-butyl (1RS,2SR)-2-(4-fluorophenyl)-2-hydroxy-1-{3-[(trifluoromethyl)sulfonyl]benzyl}ethylcarbamate]	152 to 153
O=C(CCC1CCCC1)N[C@H](Cc1ccc(C(F)(F)F)cc1)[C@@H](O)c1ccc(F)cc1 (racemic) [Example 45, 3-cyclopentyl-N-[(1RS,2SR)-2-(4-fluorophenyl)-2-hydroxy-1-[4-(trifluoromethyl)benzyl]ethyl]propionamide]	169 to 170
CC(C)(C)OC(=O)NCC(=O)O[C@H](c1ccc(F)cc1)[C@H](Cc1cccc(OC(F)(F)C(F)F)c1)NC(=O)c1ccc(F)c2ccccc12 (racemic) [Example 390, N-(tert-butoxycarbonyl)glycine (1RS,2SR)-2-[(4-fluoro-1-naphthoyl)amino]-1-(4-fluorophenyl)-3-[3-(1,1,2,2-tetrafluoroethoxy)phenyl]propyl ester]	126 to 127
CC(C)(C)OC(=O)N[C@H](Cc1ccc(C(F)(F)F)cc1)[C@@H](O)c1ccc(F)cc1 (racemic) [Example 28, 1,1-dimethylethyl (1RS,2SR)-2-(4-fluorophenyl)-2-hydroxy-1-((4-(trifluoromethyl)phenyl)methyl)ethylcarbamate]	158 to 159
O=C(N[C@H](Cc1cccc(OC(F)(F)F)c1)[C@@H](O)c1ccc(F)cc1)c1cccc2c1C=CCCC2 (racemic) [Example 133, N-[(1RS,2SR)-2-(4-fluorophenyl)-2-hydroxy-1-[3-(trifluoromethoxy)benzyl]ethyl]-6,7-dihydro-5H-benzo[a]cycloheptene-1-carboxamide]	177 to 178
O=C(N[C@H](Cc1cccc(OC(F)(F)C(F)F)c1)[C@@H](O)c1ccc(Oc2ccccn2)cc1)c1cccc2c1C=CCCC2 (racemic) [Example 258, N-{(1RS,2SR)-2-hydroxy-2-[4-(pyridin-2-yloxy)phenyl]-1-[3-(1,1,2,2-tetrafluoroethoxy)benzyl]ethyl}-6,7-dihydro-5H-benzo[a][7]annulene-1-carboxamide]	160 to 161
CC(=CC(=O)N[C@H](Cc1ccc(C(F)(F)F)cc1)[C@@H](O)c1ccc(F)cc1)C(F)(F)F (racemic) [Example 49, 4,4,4-trifluoro-N-[(1RS,2SR)-2-(4-fluorophenyl)-2-hydroxy-1-[4-(trifluoromethyl)benzyl]ethyl]-3-methyl-2-butenamide]	182 to 183
O=C(N[C@H](Cc1ccc(C(F)(F)F)cc1)[C@@H](O)c1ccc(F)cc1)c1cc(C(F)(F)F)cc(C(F)(F)F)c1 (racemic) [Example 86, N-((1RS,2SR)-2-(4-fluorophenyl)-2-hydroxy-1-((4-(trifluoromethyl)phenyl)methyl)ethyl)-3,5-bis(trifluoromethyl)benzamide]	150 to 151

Other lines, results leading:

melting point [°C]	SMILES
170 to 171	CC(C)C(F)(F)Cc1ccc(C[C@@H](NC(=O)c2cccc3c(Cl)cccc23)[C@@H](O)c2cccc(Cl)c2)cc1 (racemic) [Example 354, 5-chloro-N-[(1RS,2SR)-2-(3-chlorophenyl)-1-[4-(2,2-difluoro-3-methylbutyl)benzyl]-2-hydroxyethyl]naphthalene-1-carboxamide]
171 to 172	CCCCc1ccc(C(=O)N[C@H](Cc2ccc(C(F)(F)F)cc2)[C@@H](O)c2ccc(F)cc2)cc1 (racemic) [Example 79, 4-butyl-N-((1RS,2SR)-2-(4-fluorophenyl)-2-hydroxy-1-((4-(trifluoromethyl)phenyl)methyl)ethyl)benzamide]
144 to 145	O=C(CCc1ccccc1)N[C@H](Cc1ccc(C(F)(F)F)cc1)[C@@H](O)c1ccc(F)cc1 (racemic) [Example 48, N-((1RS,2SR)-2-(4-fluorophenyl)-2-hydroxy-1-((4-(trifluoromethyl)phenyl)methyl)ethyl)-3-phenylpropanamide]
212 to 213	O=C(N[C@H](Cc1ccc(C(F)F)cc1)[C@@H](O)c1ccc(F)cc1)c1ccc(F)c2ccccc12 (racemic) [Example 165, N-[(1RS,2SR)-1-[4-(difluoromethyl)benzyl]-2-(4-fluorophenyl)-2-hydroxyethyl]-4-fluoronaphthalene-1-carboxamide]
189 to 190	Cc1cc(C[C@@H](NC(=O)c2ccc(F)c3ccccc23)[C@@H](O)c2ccc(F)cc2)cc(OC(F)(F)C(F)F)c1 (racemic) [Example 230, N-((1RS,2SR)-2-(4-fluorophenyl)-2-hydroxy-1-((5-methyl-3-(1,1,2,2-tetrafluoroethoxy)phenyl)methyl)ethyl)-4-fluoro-1-naphthalenecarboxamide]
195 to 196	O=C(N[C@H](Cc1ccc(C(F)(F)F)cc1)[C@@H](O)c1cccc2ccccc12)c1ccc(F)c2ccccc12 (racemic) [Example 186, 4-fluoro-N-((1RS,2SR)-2-hydroxy-2-(1-naphthalenyl)-1-((4-(trifluoromethyl)phenyl)methyl)ethyl)-1-naphthalenecarboxamide]
104 to 106	CC(C)(C)C(F)(F)c1ccc(C[C@@H](NC(=O)c2ccc(F)c3ccccc23)[C@@H](O)c2cccc(Cl)c2)cc1 (racemic) [Example 379, N-{(1RS,2SR)-2-(3-chlorophenyl)-1-[4-(1,1-difluoro-2,2-dimethylpropyl)benzyl]-2-hydroxyethyl}-4-fluoro-1-naphthamide]
217 to 218	O=C(N[C@H](Cc1ccc(C(F)(F)F)cc1)[C@@H](O)c1cccc2ccccc12)c1cccc2ccccc12 (racemic) [Example 185, N-((1RS,2SR)-2-hydroxy-2-(1-naphthalenyl)-1-((4-(trifluoromethyl)phenyl)methyl)ethyl)-1-naphthalenecarboxamide]
153 to 154	O=C(N[C@H](Cc1ccc(C(F)(F)F)cc1)[C@@H](O)c1ccc(F)cc1)c1ccc(/C=C\c2ccccc2Cl)cc1 (racemic) [Example 96, 4-[(Z)-2-(2-chlorophenyl)ethenyl]-N-[(1RS,2SR)-2-(4-fluorophenyl)-2-hydroxy-1-[4-(trifluoromethyl)benzyl]ethyl]benzenecarboxamide]
131 to 132	O=C(N[C@H](Cc1cccc(OC(F)(F)C(F)F)c1)[C@@H](O)c1ccc(-c2cccc(Cl)c2)cc1)c1cccc2c1C=CCCC2 (racemic) [Example 295, N-[(1RS,2SR)-2-(3′-chloro[1,1′-biphenyl]-4-yl)-2-hydroxy-1-[3-(1,1,2,2-tetrafluoroethoxy)benzyl]ethyl]-6,7-dihydro-5H-benzo[a]cycloheptene-1-carboxamide]
212 to 213	O=C(N[C@H](Cc1ccc(C(F)(F)F)c(F)c1)[C@@H](O)c1ccc(F)cc1)c1ccc(F)c2ccccc12 (racemic) [Example 156, N-((1RS,2SR)-2-(4-fluorophenyl)-1-((3-fluoro-4-(trifluoromethyl)phenyl)methyl)-2-hydroxyethyl)-4-fluoro-1-naphthalenecarboxamide]
